For the assay, the target named is T1, recombinant guanylate cyclase reporter cell line (Rattus norvegicus, UniProt P19686+P20595).
T1 construct: expressed in transfected cells
T1 sequence (P19686 1-690): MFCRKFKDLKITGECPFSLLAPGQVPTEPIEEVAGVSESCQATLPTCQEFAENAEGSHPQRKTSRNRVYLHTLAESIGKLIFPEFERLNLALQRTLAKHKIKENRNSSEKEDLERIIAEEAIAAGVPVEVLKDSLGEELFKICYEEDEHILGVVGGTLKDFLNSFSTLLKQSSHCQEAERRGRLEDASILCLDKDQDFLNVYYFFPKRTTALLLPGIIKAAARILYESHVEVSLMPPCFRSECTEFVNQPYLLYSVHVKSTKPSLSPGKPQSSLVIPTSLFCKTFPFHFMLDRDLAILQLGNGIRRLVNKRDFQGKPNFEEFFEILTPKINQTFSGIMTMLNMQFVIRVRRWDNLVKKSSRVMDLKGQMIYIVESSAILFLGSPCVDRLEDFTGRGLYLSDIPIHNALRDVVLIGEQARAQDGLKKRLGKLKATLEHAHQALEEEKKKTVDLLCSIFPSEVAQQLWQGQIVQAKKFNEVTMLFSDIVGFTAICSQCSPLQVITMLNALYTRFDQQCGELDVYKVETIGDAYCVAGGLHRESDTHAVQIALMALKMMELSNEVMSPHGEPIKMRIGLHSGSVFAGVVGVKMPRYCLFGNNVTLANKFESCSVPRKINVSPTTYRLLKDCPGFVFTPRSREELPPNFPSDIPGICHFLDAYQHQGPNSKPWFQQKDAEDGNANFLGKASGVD
T1 sequence (P20595 1-619): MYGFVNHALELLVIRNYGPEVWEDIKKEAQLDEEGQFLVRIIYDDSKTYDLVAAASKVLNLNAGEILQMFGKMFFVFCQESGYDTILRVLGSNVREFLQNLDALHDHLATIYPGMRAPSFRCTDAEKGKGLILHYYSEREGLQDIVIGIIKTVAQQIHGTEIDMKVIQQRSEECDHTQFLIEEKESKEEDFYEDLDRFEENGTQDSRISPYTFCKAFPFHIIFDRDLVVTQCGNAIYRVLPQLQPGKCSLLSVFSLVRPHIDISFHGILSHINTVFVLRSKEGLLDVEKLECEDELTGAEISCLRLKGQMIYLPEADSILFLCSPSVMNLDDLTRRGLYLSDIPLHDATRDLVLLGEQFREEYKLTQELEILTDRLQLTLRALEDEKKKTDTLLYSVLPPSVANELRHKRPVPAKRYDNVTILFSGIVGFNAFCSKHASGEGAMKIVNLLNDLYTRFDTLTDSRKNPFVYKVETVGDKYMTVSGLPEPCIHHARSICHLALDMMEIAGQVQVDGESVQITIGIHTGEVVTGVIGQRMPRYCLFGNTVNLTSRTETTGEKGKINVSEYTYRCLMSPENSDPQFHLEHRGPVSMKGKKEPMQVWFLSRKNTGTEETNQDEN
In words: Effect on a recombinant guanylate cyclase reporter cell line (B-2). The format is cell-based. As to conditions: in some cases mean values for individual determinations. How it is done:
B-2. Effect on a Recombinant Guanylate Cyclase Reporter Cell Line
The cellular effect of the inventive compounds is determined using a recombinant guanylate cyclase reporter cell line, as described in F. Wunder et al., Anal. Biochem. 339, 104-112 (2005).
Representative MEC values (MEC=minimum effective concentration) for the inventive compounds are shown in the table below (in some cases as mean values for individual determinations): […]

We go through 22 molecules from patent US9422285B2, “Substituted pyrazolo[1,5-A]-pyridine-3-carboxamides and use thereof” (Bayer Pharma Aktiengesellschaft, priority 2014, dated 2016).

Counter-ions that a name gives are not always drawn.

For the molecule `Cc1cc(OCc2c(F)cccc2F)n2nc(C3CC3)c(C(=O)NCC(C)(N)CCC(F)(F)F)c2c1` (single isomer, unassigned) [Example 58, ent-N-(2-Amino-5,5,5-trifluoro-2-methylpentyl)-2-cyclopropyl-7-[(2,6-difluorobenzyl)oxy]-5-methylpyrazolo[1,5-a]pyridine-3-carboxamide], the “MEC (minimum effective concentration)” value turned out to be 0.03 µM.

Consider `Cc1cc(OCc2c(F)ccc(F)c2F)n2nc(C)c(C(=O)NCc3ccc(Cl)nc3)c2c1` [Example 21, N-[(6-Chloropyridin-3-yl)methyl]-2,5-dimethyl-7-[(2,3,6-trifluorobenzyl)oxy]pyrazolo[1,5-a]pyridine-3-carboxamide], for which the “MEC (minimum effective concentration)” value came out at 0.3 µM.

For the molecule `Cc1cc(OCc2c(F)cccc2F)n2nc(C)c(C(=O)NCC(N)C#N)c2c1` (racemic) [Example 59, rac-N-(2-Amino-2-cyanoethyl)-7-[(2,6-difluorobenzyl)oxy]-2,5-dimethylpyrazolo[1,5-a]pyridine-3-carboxamide], the “MEC (minimum effective concentration)” value was 3.0 µM.

On to `Cc1cc(OCc2c(F)cccc2F)n2nc(C)c(C(=O)NCC(C)(N)CC(C)C)c2c1` (racemic) [Example 92, rac-N-(2-Amino-2,4-dimethylpentyl)-7-[(2,6-difluorobenzyl)oxy]-2,5-dimethylpyrazolo[1,5-a]pyridine-3-carboxamide], for which the “MEC (minimum effective concentration)” value is 0.3 µM.

As to `Cc1cc(OCc2c(F)ccc(F)c2F)n2nc(C)c(C(=O)NC3CC4CCCC(C3)N4C)c2c1` (stereo not shown) [Example 29, 2,5-Dimethyl-N-(9-methyl-9-azabicyclo[3.3.1]non-3-yl)-7-[(2,3,6-trifluorobenzyl)oxy]pyrazolo[1,5-a]pyridine-3-carboxamide], the “MEC (minimum effective concentration)” value is 0.3 µM.

On to `Cc1cc(OCc2c(F)cccc2F)n2nc(C)c(C(=O)NNC(=O)CN3CCCCC3)c2c1` [Example 174, 7-[(2,6-Difluorobenzyl)oxy]-2,5-dimethyl-N′-(piperidin-1-ylacetyl)pyrazolo[1,5-a]pyridine-3-carbohydrazide], for which the “MEC (minimum effective concentration)” value is 1.0 µM.

Regarding `CC(=O)NCCNC(=O)c1c(C)nn2c(OCc3c(F)cccc3F)cc(C)cc12` [Example 96, N-(2-Acetamidoethyl)-7-[(2,6-difluorobenzyl)oxy]-2,5-dimethylpyrazolo[1,5-a]pyridine-3-carboxamide], the “MEC (minimum effective concentration)” value is 10 µM.

With `C=Cc1cccc(C(N)CNC(=O)c2c(C)nn3c(OCc4c(F)cccc4F)cc(C)cc23)c1` (racemic) [Example 141, rac-N-[2-Amino-2-(3-vinylphenyl)ethyl]-7-[(2,6-difluorobenzyl)oxy]-2,5-dimethylpyrazolo[1,5-a]pyridine-3-carboxamide], the “MEC (minimum effective concentration)” value was 3.0 µM.

For `COC(=O)[C@H]1CC[C@H](CNC(=O)c2c(C)nn3c(OCc4c(F)cccc4F)cc(C)cc23)CC1` [Example 35, Methyl trans-4-{[({7-[(2,6-difluorobenzyl)oxy]-2,5-dimethylpyrazolo[1,5-a]pyridin-3-yl}carbonyl)amino]methyl}cyclohexanecarboxylate], the “MEC (minimum effective concentration)” value came to 1.0 µM.

As to `Cc1cc(OCc2c(F)cccc2F)n2nc(C)c(C(=O)N[C@@H]3COC[C@@H]3N)c2c1` (relative stereo) [Example 69, rel-N-[(3R,4S)-4-Aminotetrahydrofuran-3-yl]-7-[(2,6-difluorobenzyl)oxy]-2,5-dimethylpyrazolo[1,5-a]pyridine-3-carboxamide], the “MEC (minimum effective concentration)” value stood at 10 µM.

Take `Cc1cc(OCc2c(F)cccc2F)n2nc(C)c(C(=O)NCC(N)c3cccc(C(F)(F)F)c3)c2c1` (racemic) [Example 105, rac-N-{2-Amino-2-[3-(trifluoromethyl)phenyl]ethyl}-7-[(2,6-difluorobenzyl)oxy]-2,5-dimethylpyrazolo[1,5-a]pyridine-3-carboxamide]: the “MEC (minimum effective concentration)” value was 3.0 µM.

In the case of `Cc1cc(OCc2c(F)cccc2F)n2nc(C)c(C(=O)N[C@H]3c4ccccc4C[C@H]3O)c2c1` [Example 71, 7-[(2,6-Difluorobenzyl)oxy]-N-[(1S,2R)-2-hydroxy-2,3-dihydro-1H-inden-1-yl]-2,5-dimethylpyrazolo[1,5-a]pyridine-3-carboxamide trifluoroacetate], the “MEC (minimum effective concentration)” value stood at 0.3 µM.

Consider `Cc1cc(OCc2c(F)cccc2F)n2nc(C)c(C(=O)NCC(N)CC(F)(F)F)c2c1` (racemic) [Example 107, rac-N-(2-Amino-4,4,4-trifluorobutyl)-7-[(2,6-difluorobenzyl)oxy]-2,5-dimethylpyrazolo[1,5-a]pyridine-3-carboxamide], for which the “MEC (minimum effective concentration)” value stood at 3.0 µM.

Take `Cc1cc(OCc2c(F)cccc2F)n2nc(C)c(C(=O)NN3CCOCC3)c2c1` [Example 135, 7-[(2,6-Difluorobenzyl)oxy]-2,5-dimethyl-N-(morpholin-4-yl)pyrazolo[1,5-a]pyridine-3-carboxamide]: the “MEC (minimum effective concentration)” value worked out at 3.0 µM.

Take `COC(=O)[C@@H](N)CCCCNC(=O)c1c(C)nn2c(OCc3c(F)cccc3F)cc(C)cc12` [Example 131, Methyl N^6-({7-[(2,6-difluorobenzyl)oxy]-2,5-dimethylpyrazolo[1,5-a]pyridin-3-yl}carbonyl)-L-lysinate]: the “MEC (minimum effective concentration)” value was determined as 3.0 µM.

Consider `Cc1cc(OCc2c(F)cccc2F)n2nc(C)c(C(=O)NCC(C)(C)N)c2c1` [Example 1, N-(2-Amino-2-methylpropyl)-7-[(2,6-difluorobenzyl)oxy]-2,5-dimethylpyrazolo[1,5-a]pyridine-3-carboxamide formate], for which the “MEC (minimum effective concentration)” value turned out to be 2 µM.

Consider `Cc1cc(OCc2c(F)cccc2F)n2nc(C)c(C(=O)NCC(C)(N)CC(F)F)c2c1` (single isomer, unassigned) [Example 47, ent-N-(2-Amino-4,4-difluoro-2-methylbutyl)-7-[(2,6-difluorobenzyl)oxy]-2,5-dimethylpyrazolo[1,5-a]pyridine-3-carboxamide], for which the “MEC (minimum effective concentration)” value is 1.0 µM.

Take `CCC(N)(CC)CNC(=O)c1c(C)nn2c(OCc3c(F)ccc(F)c3F)cc(C)cc12` [Example 8, N-(2-Amino-2-ethylbutyl)-2,5-dimethyl-7-[(2,3,6-trifluorobenzyl)oxy]pyrazolo[1,5-a]pyridine-3-carboxamide]: the “MEC (minimum effective concentration)” value stood at 0.3 µM.

For the molecule `Cc1cc(OCc2c(F)cccc2F)n2nc(C)c(C(=O)NCC(N)c3ccc4c(c3)OCCO4)c2c1` (racemic) [Example 110, rac-N-[2-Amino-2-(2,3-dihydro-1,4-benzodioxin-6-yl)ethyl]-7-[(2,6-difluorobenzyl)oxy]-2,5-dimethylpyrazolo[1,5-a]pyridine-3-carboxamide], the “MEC (minimum effective concentration)” value was 3.0 µM.

Consider `Cc1cc(OCc2c(F)cccc2F)n2nc(C)c(C(=O)NCC(C)(N)CC(F)F)c2c1` (single isomer, unassigned) [Example 46, ent-N-(2-Amino-4,4-difluoro-2-methylbutyl)-7-[(2,6-difluorobenzyl)oxy]-2,5-dimethylpyrazolo[1,5-a]pyridine-3-carboxamide], for which the “MEC (minimum effective concentration)” value came out at 2.0 µM.

Regarding `COc1cccc(C(CN)NC(=O)c2c(C)nn3c(OCc4c(F)cccc4F)cc(C)cc23)c1` (racemic) [Example 123, rac-N-[2-Amino-1-(3-methoxyphenyl)ethyl]-7-[(2,6-difluorobenzyl)oxy]-2,5-dimethylpyrazolo[1,5-a]pyridine-3-carboxamide], the “MEC (minimum effective concentration)” value was 1.0 µM.

As for `Cc1cc(OCc2c(F)cccc2F)n2nc(C3CC3)c(C(=O)NCC(C)(N)CC(F)F)c2c1` (single isomer, unassigned) [Example 57, ent-N-(2-Amino-4,4-difluoro-2-methylbutyl)-2-cyclopropyl-7-[(2,6-difluorobenzyl)oxy]-5-methylpyrazolo[1,5-a]pyridine-3-carboxamide], the “MEC (minimum effective concentration)” value is 0.3 µM.
